The results in this text go back to PMC12040169 (PLOS Biology, 2025).

The nature of the series: in vitro. The following applies: human, hela cells, % viability.

The term viability denotes a read-out of living cells in per cent, often relative to untreated cells. On to `Cc1noc(NS(=O)(=O)c2ccc(NC(=O)C3COc4ccccc4O3)cc2)c1C` (stereo not drawn) [CBK264923], for which the viability at 28.5 h, 10 µM is 90.1%. Same read-out and setting: with `Cc1cc2nc3s/c(=C\c4ccc(-c5ccc(O)c(C(=O)O)c5)o4)c(=O)n3c2cc1C` [CBK262538] the figure was 100%; with `Cc1nc2ccc(C(=O)NC(C)(C)CN3CCCC(C)C3)cc2[nH]1` (stereo not drawn) [CBK282629], 85.3%; with `O=C(O)CNC(=O)c1ccc(S(=O)(=O)N2CCCC2)cc1` [CBK267434], 87%.

`Cn1c(=O)c2c(nc(CN3CCN(Cc4ccccc4)CC3)n2CCc2ccccc2)n(C)c1=O` [CBK269523]: the viability at 28.5 h, 10 µM was determined as 90.9%.

Consider `Cc1ccc(OCC(O)CNC(=O)c2ccccc2C(=O)O)cc1` (stereo not drawn) [CBK264778], for which the viability at 28.5 h, 10 µM amounted to 116%. On the same count and under the same terms, the value for `CC(C)c1ccc(NC(=O)NC(=O)C2CCN(CCOc3ccc4ccccc4c3)CC2)c(C(C)C)c1` [CBK034883] was 96%; that for `O=C(CS(=O)(=O)c1ccccc1)Nc1cnc(-c2ccc(F)cc2)c(-c2ccoc2)n1` [CBK037168] was 107%; that for `O=C(NC[C@H]1O[C@@H](CC(=O)N2CCN(c3ccccn3)CC2)[C@H](O)[C@@H]1O)c1ccco1` [CBK288923] was 102%. Same read-out and setting: the value for `O=C(O)c1c[nH]cn1` [CBK260978G] was 97%. Still for that read-out and setting: the value for `O=S(=O)(Nc1ccc(Cc2ccncc2)cc1)N1CCCC1` [CBK268263] was 112%; that for `c1ccc2c(CCN3CCC(Oc4nccnc4OCCN4CCOCC4)CC3)c[nH]c2c1` [CBK082939T] was 88.6%; that for `CC(=O)Nc1ccc(Nc2cc(-c3ccco3)ncn2)cc1` [CBK090719] was 100%. Turning to `CCO/C(C)=C/c1sc2ccc3ccccc3c2[n+]1CCCS(=O)(=O)[O-]` [CBK260948], the viability at 28.5 h, 10 µM is 95.1%.

In the case of `COc1ccc([C@]23CC[C@H](NC(=O)Nc4ccc(C#N)c(Cl)c4)C[C@H]2N(C)CC3)cc1OC` [CBK066928T], the viability at 28.5 h, 10 µM (bulk resorufin, single well) is 94.9%. Take `Cc1cc(COc2nccnc2OC2CCN(CC(=O)Nc3c(C)cccc3C)CC2)no1` [CBK082958T]: the viability at 28.5 h, 10 µM was 103%. The same measure, in the same setting: the value for `CC1(C)CCCC2=C1CC(C(=O)O)C(C(=O)NCc1cccnc1)C2` (stereo not drawn) [CBK286795] was 83.3%; that for `CCOC(=O)C1CCN(S(=O)(=O)c2ccc(C(C)C)cc2)CC1` [CBK200044] was 86.4%; that for `Nc1ncccc1OCCOc1cccnc1N` [CBK022067] was 89.3%.

As for `O=C1N[C@@H]2CCN(C(=O)CCn3ccccc3=O)C[C@@H]2CCCCCOc2ccccc21` [CBK292039], the viability at 28.5 h, 10 µM amounted to 94.2%. On the same count and under the same terms, the value for `OCC1CCCN1c1nccnc1-c1ccccc1F` (stereo not drawn) [CBK038037] was 104%. Still for that read-out and setting: the value for `COc1ccc2c(=O)c3c(oc2c1)C(=O)N(CCN(C)C)C3c1ccccn1` (stereo not drawn) [CBK287781] was 98.3%; that for `COc1ccc(-c2nnc(SCCC(=O)O)[nH]2)cc1` [CBK300506] was 93.4%; that for `C/C(Cl)=C\CN1C(=O)C(=O)c2cc(C)ccc21` [CBK087601] was 92.3%. On the same count and under the same terms, the value for `O=C(CN1C(=O)c2ccc([N+](=O)[O-])cc2C1=O)Nc1cccc2c1C(=O)N(c1ccccc1)C2=O` [CBK265576] was 84.7%; that for `COc1cccc(-c2ccc(NC(=O)CCC3C(=O)Nc4ccccc43)cc2)c1` (stereo not drawn) [CBK285851] was 116%; that for `CC1=NN(c2ccccc2)C(=O)/C1=C\c1cn(CCC(=O)O)nc1-c1cc2ccccc2o1` [CBK265252] was 88.1%. As to `COc1ccc(CC(=O)Nc2ccc(Nc3ccccc3)cc2)cc1` [CBK263884], the viability at 28.5 h, 10 µM was 114%.

Take `Cc1ccc(NC(=O)CSc2nnc(C(O)c3ccccc3)n2-c2ccccc2)c(C)c1` (stereo not drawn) [CBK266072]: the viability at 28.5 h, 10 µM was 106%. The same measure, in the same setting: the value for `CCN(CC(C)C#N)C(=O)c1nnn(-c2ccc3ncccc3c2)c1C` (stereo not drawn) [CBK305292] was 86.3%; that for `O=C(O)c1ccccc1NS(=O)(=O)/C=C/c1ccccc1` [CBK042363] was 102%. Still for that read-out and setting: with `CCC(NC(=O)Nc1cc(N2CCOCC2)ccc1Cl)c1nc(C)no1` (stereo not drawn) [CBK306526] the figure was 87.9%; with `CN(C)C1c2cccc3cccc(c23)C1NS(C)(=O)=O` (stereo not drawn) [CBK265851], 110%.

For the compound `CC(c1ccc(F)c(F)c1)N(C)C(=O)Cn1cnnc1[S+](C)[O-]` (stereo not drawn) [CBK305311], the viability at 28.5 h, 10 µM turned out to be 105%. For the compound `CCn1cc(-c2cncn2CCCn2nc(C)cc2C)cn1` [CBK281770], the viability at 28.5 h, 10 µM was found to be 97.1%.

Turning to `CC(C)(C)C(=O)N[C@H]1CO[C@H]2[C@@H]1OC[C@@H]2Nc1nccc(C2CCCC2)n1` [CBK289530], the viability at 28.5 h, 10 µM is 115%.

`C=CCOc1ccc2ccccc2c1CNc1nn[nH]n1` [CBK267619]: the viability at 28.5 h, 10 µM came to 92.8%.

`Cc1ccc(S(=O)(=O)N(CC(=O)Nc2ccc3c(c2)OCCO3)Cc2ccccc2F)cc1` [CBK265157]: the viability at 28.5 h, 10 µM amounted to 83.3%.

Take `Cn1cc(CN(Cc2ccccc2)CC2CCCO2)cn1` (stereo not drawn) [CBK283233]: the viability at 28.5 h, 10 µM was 85.1%. On the same count and under the same terms, the value for `Oc1cc(C(F)(F)F)nc(NCc2ccc(-c3ccccc3)cc2)n1` [CBK002395] was 105%. Regarding `COc1cncc(C(NC(=O)c2ccc3c(c2)CCC3)[C@H]2C[C@H](O)C2)c1` (stereo partly drawn) [CBK307646], the viability at 28.5 h, 10 µM is 105%. On the same count and under the same terms, with `COc1ccc(C(=O)N2CCN(Cc3cccnc3)CC2)cc1OC` [CBK263321] the figure was 99.3%; with `O=C(CCN1C(=O)C2C3CCC(C3)C2C1=O)OCC(=O)c1ccc(Cl)c([N+](=O)[O-])c1` (stereo not drawn) [CBK264124], 95.2%; with `Cc1cc(OCCCCNCCO)ccc1Cl` [CBK033516], 111%. For `O=C(NCCCc1ccccn1)c1cnn(-c2ccc(F)cc2)c1` [CBK283287], the viability at 28.5 h, 10 µM was determined as 87.6%.

For `CCn1nc(C(=O)Nc2ccccc2-c2ccc(OC)cc2)c2ccccc2c1=O` [CBK285864], the viability at 28.5 h, 10 µM stood at 94.1%. On the same count and under the same terms, with `CC(=O)c1ccc(-c2nc(NC(=O)c3cccs3)cnc2-c2ccc(F)cc2)s1` [CBK037558] the figure was 81.8%. For the compound `Cc1ccc(SCCNC(=O)COc2ccc(Cl)cc2Cl)cc1` [CBK263976], the viability at 28.5 h, 10 µM amounted to 86.6%.

Take `OC(CNCCc1ccccc1)COc1c(Br)cccc1Br` (stereo not drawn) [CBK003071]: the viability at 28.5 h, 10 µM came to 94%. Same read-out and setting: the value for `O=S1(=O)CCC(c2nc(-c3ccc(Br)o3)no2)C1` (stereo not drawn) [CBK306134] was 77.8%; that for `Cc1cccc(NC(=O)CN2C(=O)S/C(=C\c3cc(C)n(-c4ccc(N(C)C)cc4)c3C)C2=O)c1` [CBK264586] was 96.9%. On the same count and under the same terms, with `O=C(NCCN1CCC(O)(c2ccc(F)cc2)CC1)C1CCCCC1` [CBK283165] the figure was 106%; with `O=C(CCc1ccc(S(=O)(=O)NC2CCCCC2)cc1)Nc1ccc2c(c1)OCCO2` [CBK266845], 95.2%. Still for that read-out and setting: the value for `CC(C)(c1ccccc1)c1ccc(OCCNCCN)cc1` [CBK265102] was 103%. With `CCN1CCN(C(=O)C2CC=CCC2C(=O)O)CC1` (stereo not drawn) [CBK270295], the viability at 28.5 h, 10 µM came out at 91.6%. On the same count and under the same terms, with `CCCCc1ccc(-c2nc(NC(=O)NCC)cc3cccnc23)cc1` [CBK081231] the figure was 94.6%; with `CCOc1ccsc1C(=O)N1CCC(Cc2ccccc2)CC1` [CBK200186], 114%; with `O=C(Nc1ccc2[nH]ccc2c1)N1CCc2ccccc2C1` [CBK155289], 84.5%. On the same count and under the same terms, the value for `Cc1cc(I)cnc1NC(=O)CSc1ccc(Cl)cc1` [CBK266438] was 94.3%. Take `O=C(O)C1CCCCN1S(=O)(=O)c1ccc(Cl)cc1` (stereo not drawn) [CBK077418]: the viability at 28.5 h, 10 µM amounted to 91.6%. Same read-out and setting: the value for `O=C1N(CCc2ccccc2)CC=CCC12CN(Cc1ccc3[nH]ccc3c1)CCO2` (stereo not drawn) [CBK286130] was 105%; that for `O=C(N[C@H]1CCN2C(=O)N(c3ccc(Br)cc3)C(=O)[C@@H]2C1)c1cccnc1` [CBK289557] was 104%; that for `COc1ccc(CCC(=O)Nc2cccc(OCCC3CCNCC3)c2)cc1OC` [CBK138350] was 95.6%.

Take `CC(=O)c1cc(CN2CCCOC(Cn3cccn3)C2)cs1` (stereo not drawn) [CBK307365]: the viability at 28.5 h, 10 µM came out at 84.3%. On to `O=C(c1ccco1)N1CCN(CC(=O)N2c3ccccc3OCC2c2ccccc2)CC1` (stereo not drawn) [CBK239722], for which the viability at 28.5 h, 10 µM was 89.9%. Same read-out and setting: the value for `COc1ccc(-c2nc(C3CCNCC3)n3ccccc23)cc1` [CBK035971] was 92.9%; that for `CCOC(=O)N1CCC(NS(=O)(=O)c2cccc3cccnc23)CC1` [CBK045453] was 90.6%; that for `CCc1nn(CC(=O)NC(C)(C)C)c(=O)c2cc3ccsc3n12` [CBK284183] was 105%. Same read-out and setting: the value for `O=C(CSc1nnc(-c2cccnc2)n1Cc1ccccc1)NCc1ccccc1` [CBK111647] was 95.7%. The same measure, in the same setting: with `CCc1nc2c(OCCCN(C)S(C)(=O)=O)cccn2c1N(C)C(=O)c1ccco1` [CBK147435] the figure was 95%; with `N#CCCN1CCC2(CC1)NCCc1c2[nH]c2ccccc12` [CBK039788], 89%; with `O=C(Nc1cccc2ncccc12)c1ccnc(N2CCOCC2)c1` [CBK287882], 102%. Turning to `COc1ccc(F)cc1-c1ccccc1CC1(C(=O)NCCc2ccccc2)CCOCC1` [CBK286424], the viability at 28.5 h, 10 µM amounted to 97.5%. Consider `CC(C)c1ccc(NC(=O)C2=NNC(=O)CC2)cc1` [CBK057421], for which the viability at 28.5 h, 10 µM is 96.5%. Same read-out and setting: with `COc1cc(/N=C(\N)Nc2nc(=O)cc(CSc3ccc(C)cc3)[nH]2)cc(OC)c1` [CBK265532] the figure was 83.4%; with `Cc1cc(COC(=O)N2CCCC(F)(F)C2)cc(C)n1` [CBK200151], 125%; with `Cc1nn(C(C)C)c(C)c1CN(Cc1ccccn1)Cc1ccco1` [CBK283221], 114%. Same read-out and setting: with `O=C(N1CCC=C(F)C1)C12CCOCC1CN(c1ncccn1)C2` (stereo not drawn) [CBK304264] the figure was 91.3%.
